Experimental data: patent publication US8993716B2, “Peptides used in the treatment and/or care of the skin, mucous membranes and/or hair and its use in cosmetic or pharmaceutical compositions” (Lipotec, S.A., priority 2009, dated 2015)
Peptide text beside a SMILES is read from it. * marks the point of attachment. Cbz = O=C(OCc1ccccc1)*

Tests used:
[1] = system: Hsp70; assay: Hsp70 synthesis stimulation assay (competitive ELISA); format: cell-based; details: human keratinocyte cell line, normalized to average basal values
Procedure: Hsp70 synthesis stimulation was assessed in a human keratinocyte cell line in the presence of the peptides of the invention. The cells were seeded (10^6 cells/6-well plate) and incubated for 24 hours in DMEM, after which the peptides were added to 200 μM in culture medium and were incubated for another 16-24 hours. The proteasome inhibitor MG-132 at 10 μM was used as a positive control and vehicle (culture medium) as a negative control. After the incubation period, the cells were washed with PBS, lysed and centrifuged at 12,000 rpm at 4° C. for 10 min. The supernatants were collected, and the Hsp70 levels were determined by carrying out a competitive ELISA assay following the protocols of the commercial kit (DuoSet IC human/mouse total HSP70 ELISA kit, R&D Systems Inc.)
Hsp70 levels were normalized with regards to the average basal values.

[2] = system: human keratinocytes; format: cell-based; details: 2 h, 0.1 mM
Procedure: The human keratinocytes were maintained in culture for 24 hours in 96-well plates for monolayer formation and the cells were pre-incubated in darkness with 0.1 mM of Ac-L-His-L-Pro-L-Leu-L-Arg-OH, Ac-L-His-L-Leu-L-Leu-L-Arg-OH in culture medium or with vehicle (culture medium) for 2 hours at 37° C. Subsequently the cells were radiated with UVB at an energy of 800 J/m^2. A control plate with vehicle was maintained in the dark without radiation for the same time at room temperature. After the irradiation period the cells' medium was replaced by a fresh medium and the cells were incubated for additional 24 hours. Cell viability was determined by the MTT method, adding 5 mg/mL of the MTT solution to each well and incubating the plate for 4 hours at 37° C., after which time the medium was removed, 100μL of DMSO was added and the plate was stirred at room temperature for 15 min. The optical density of each well was measured at 570 nm in a spectrophotometer.

| Compound | Hsp70 increase ([1]; positive control MG-132 at 10 μM) | Hsp70 increase ([1]; peptide 200 μM, 16-24 hours) | CELL VIABILITY [2] |
| --- | --- | --- | --- |
| CC(C)C[C@@H](C=O)NC(=O)[C@H](CC(C)C)NC(=O)[C@H](CC(C)C)NC(=O)OCc1ccccc1 [MG-132, reference compound] (Cbz-Leu-Leu-Leu-aldehyde) | 294% |  |  |
| CC(=O)N[C@@H](Cc1c[nH]cn1)C(=O)N1CCC[C@H]1C(=O)N[C@@H](CC(C)C)C(=O)N[C@@H](CCCNC(=N)N)C(=O)O [Ac-L-His-L-Pro-L-Leu-L-Arg-OH] (Ac-HPLR-OH) |  | 42% | 97.2% |
| CC(=O)N[C@@H](Cc1c[nH]cn1)C(=O)N[C@@H](CC(C)C)C(=O)N[C@@H](CC(C)C)C(=O)N[C@@H](CCCNC(=N)N)C(=O)O [Ac-L-His-L-Leu-L-Leu-L-Arg-OH] (Ac-HLLR-OH) |  | 28% | 87.7% |
